One may read the IC50 as the concentration at which inhibition is half-maximal. The half-life is the time in which the quantity being followed falls by half. Read a low half-life as rapid decline.

Molecules are shown by their SMILES.

Chain of Integrin alpha-4/beta-1 (P05556 whole entry, one chain of several): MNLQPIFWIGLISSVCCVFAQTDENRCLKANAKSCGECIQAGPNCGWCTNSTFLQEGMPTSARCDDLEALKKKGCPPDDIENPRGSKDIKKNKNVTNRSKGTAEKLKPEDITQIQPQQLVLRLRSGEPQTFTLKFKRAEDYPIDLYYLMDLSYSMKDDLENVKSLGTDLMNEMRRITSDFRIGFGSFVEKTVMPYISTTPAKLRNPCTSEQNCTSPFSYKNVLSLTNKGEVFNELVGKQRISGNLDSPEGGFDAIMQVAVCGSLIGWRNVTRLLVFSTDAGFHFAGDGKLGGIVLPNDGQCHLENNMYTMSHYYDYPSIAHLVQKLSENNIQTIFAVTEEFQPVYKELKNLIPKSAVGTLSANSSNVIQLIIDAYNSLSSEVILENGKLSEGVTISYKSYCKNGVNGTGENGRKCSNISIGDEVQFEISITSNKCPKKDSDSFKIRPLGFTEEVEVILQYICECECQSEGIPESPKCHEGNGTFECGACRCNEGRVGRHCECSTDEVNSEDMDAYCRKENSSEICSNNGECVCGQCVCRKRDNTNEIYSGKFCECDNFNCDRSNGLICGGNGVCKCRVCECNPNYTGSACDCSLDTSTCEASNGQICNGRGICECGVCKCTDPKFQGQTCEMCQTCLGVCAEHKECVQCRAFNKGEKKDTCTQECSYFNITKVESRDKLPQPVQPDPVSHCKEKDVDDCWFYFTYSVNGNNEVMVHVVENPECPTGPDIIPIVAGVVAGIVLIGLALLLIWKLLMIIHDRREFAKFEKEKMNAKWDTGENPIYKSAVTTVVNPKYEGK

One data set concerns the target Integrin alpha-4/beta-1 (Homo sapiens, UniProt P05556+P13612). The data set is described as follows: Alpha4-beta1 integrin binding affinity was assessed by measuring the reduction in binding of [125I]VCAM-Ig to a suspension of Jurkat cells (a human T cell line alpha-4-beta-1-beta-7). The class given is cell-based.
Details: not given; call rule not given here
Regarding `O=C(O)[C@H](Cc1ccc(OC(=O)N2CCCC2)cc1)NC(=O)[C@@H]1CCCN1S(=O)(=O)c1ccccc1`, the IC50 was found to be 0.14 nM. This counts as sub-nanomolar.
Same read-out and setting: in the case of `COc1ccc(C[C@H](NC(=O)[C@@H]2CCCN2S(=O)(=O)c2cc(Cl)cc(Cl)c2)C(=O)O)cc1` it was 0.37 nM; in that of `O=C(O)[C@H](Cc1ccc(OCc2nnn[nH]2)cc1)NC(=O)[C@@H]1CCCN1S(=O)(=O)c1cc(Cl)cc(Cl)c1`, 0.21 nM.
Same read-out and setting: in the case of `COCCOc1ccc(C[C@H](NC(=O)[C@@H]2CCCN2S(=O)(=O)c2cc(Cl)cc(Cl)c2)C(=O)O)cc1` it was 0.28 nM.
Still for that read-out and setting: in the case of `O=C(Oc1ccc(C[C@H](NC(=O)[C@@H]2CCCN2S(=O)(=O)c2cc(Cl)cc(Cl)c2)C(=O)O)cc1)C1CCCC1` it was 0.22 nM; in that of `CC(C)(C)OC(=O)COc1cccc(C[C@H](NC(=O)[C@]2(C)CCCN2S(=O)(=O)c2cc(Cl)cc(Cl)c2)C(=O)O)c1`, 0.41 nM.
As for `O=C(O)[C@H](Cc1ccc(O)cc1)NC(=O)[C@@H]1CCCN1S(=O)(=O)c1cc(Cl)cc(Cl)c1`, the 50% inhibitory concentration (IC50) came to 0.34 nM. This IC50 and that of the compound before are within 1.5-fold of each other.
Same read-out and setting: the result for `CCCCOc1ccc(C[C@H](NC(=O)[C@@H]2CCCN2S(=O)(=O)c2cc(Cl)cc(Cl)c2)C(=O)O)cc1` reads 1.11 nM; that for `CC(C)(C)Oc1cccc(C[C@H](NC(=O)[C@]2(C)CCCN2S(=O)(=O)c2cc(Cl)cc(Cl)c2)C(=O)O)c1`, 1.79 nM; that for `O=C(Oc1ccc(C[C@H](NC(=O)[C@@H]2CCCN2S(=O)(=O)c2cc(Cl)cc(Cl)c2)C(=O)O)cc1)c1ccccc1`, 0.45 nM.
The compound `O=C(Oc1ccc(C[C@H](NC(=O)[C@@H]2CCCN2S(=O)(=O)c2cc(Cl)cc(Cl)c2)C(=O)O)cc1)c1ccc[nH]1` registered an IC50 of 0.26 nM.
In turn, `CC(C)(C)Oc1ccc(C[C@H](NC(=O)[C@]2(C)CCCN2S(=O)(=O)c2cc(Cl)cc(Cl)c2)C(=O)O)cc1` came in with a 50% inhibitory concentration (IC50) of 0.27 nM. The IC50 values of the last two compounds are within 1.5-fold of each other.

For another data set, the target named is T1, Integrin alpha-4/beta-7 (Homo sapiens, UniProt P13612+P26010).
T1 sequence (P13612 whole entry): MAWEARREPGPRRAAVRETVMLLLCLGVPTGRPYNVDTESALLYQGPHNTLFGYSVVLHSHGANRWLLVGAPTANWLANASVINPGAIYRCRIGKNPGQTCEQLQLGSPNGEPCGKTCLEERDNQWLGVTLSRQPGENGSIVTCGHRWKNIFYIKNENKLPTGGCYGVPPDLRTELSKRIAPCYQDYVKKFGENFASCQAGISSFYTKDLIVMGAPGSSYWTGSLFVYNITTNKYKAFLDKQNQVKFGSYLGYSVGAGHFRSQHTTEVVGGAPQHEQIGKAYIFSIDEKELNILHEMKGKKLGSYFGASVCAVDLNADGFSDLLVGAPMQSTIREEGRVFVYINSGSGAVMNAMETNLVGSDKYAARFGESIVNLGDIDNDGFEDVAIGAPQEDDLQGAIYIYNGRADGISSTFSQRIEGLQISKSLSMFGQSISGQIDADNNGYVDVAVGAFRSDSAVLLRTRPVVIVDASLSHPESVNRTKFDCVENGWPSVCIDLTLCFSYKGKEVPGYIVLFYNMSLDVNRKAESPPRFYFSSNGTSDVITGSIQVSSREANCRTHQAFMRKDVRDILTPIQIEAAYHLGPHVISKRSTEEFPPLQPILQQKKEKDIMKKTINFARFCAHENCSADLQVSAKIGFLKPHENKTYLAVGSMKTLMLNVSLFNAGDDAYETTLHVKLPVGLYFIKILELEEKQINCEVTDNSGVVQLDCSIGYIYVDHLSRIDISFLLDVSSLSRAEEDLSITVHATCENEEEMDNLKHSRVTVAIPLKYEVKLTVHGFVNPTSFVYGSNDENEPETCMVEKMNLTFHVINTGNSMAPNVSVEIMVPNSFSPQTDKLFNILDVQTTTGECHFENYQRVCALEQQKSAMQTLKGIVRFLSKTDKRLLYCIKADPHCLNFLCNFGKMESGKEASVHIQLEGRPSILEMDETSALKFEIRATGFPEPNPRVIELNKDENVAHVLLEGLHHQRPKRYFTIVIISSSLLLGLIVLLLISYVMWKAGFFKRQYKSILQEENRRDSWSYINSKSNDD
T1 sequence (P26010 whole entry): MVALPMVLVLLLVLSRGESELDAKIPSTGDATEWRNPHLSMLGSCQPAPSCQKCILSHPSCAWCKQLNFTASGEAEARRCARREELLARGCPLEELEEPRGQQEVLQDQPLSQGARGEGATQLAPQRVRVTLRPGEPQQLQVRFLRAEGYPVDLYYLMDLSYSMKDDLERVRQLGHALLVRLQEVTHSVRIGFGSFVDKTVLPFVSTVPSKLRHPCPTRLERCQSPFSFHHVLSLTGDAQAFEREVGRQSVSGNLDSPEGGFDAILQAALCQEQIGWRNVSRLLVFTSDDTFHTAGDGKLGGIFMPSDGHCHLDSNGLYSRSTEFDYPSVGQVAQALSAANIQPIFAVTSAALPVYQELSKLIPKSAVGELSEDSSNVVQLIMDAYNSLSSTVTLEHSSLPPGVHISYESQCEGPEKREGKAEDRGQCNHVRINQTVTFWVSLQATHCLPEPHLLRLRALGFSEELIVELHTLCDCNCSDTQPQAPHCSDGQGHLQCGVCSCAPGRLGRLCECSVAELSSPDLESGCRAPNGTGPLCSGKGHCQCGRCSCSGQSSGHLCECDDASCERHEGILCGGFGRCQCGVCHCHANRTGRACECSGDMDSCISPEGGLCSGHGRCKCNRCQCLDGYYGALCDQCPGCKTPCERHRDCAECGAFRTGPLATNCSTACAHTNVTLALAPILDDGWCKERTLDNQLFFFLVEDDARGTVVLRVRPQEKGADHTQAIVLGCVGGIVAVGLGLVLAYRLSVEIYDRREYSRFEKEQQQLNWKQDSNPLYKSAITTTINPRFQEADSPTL
Nature of the data set: Inhibition of [125I]VCAM-Ig binding to Alpha4-beta7 integrin of RPMI-8866 cells at […] (inactive).
Details: not given
It is filed as cell-based.
As for `CC(C)(C)OC(=O)COc1cccc(C[C@H](NC(=O)[C@]2(C)CCCN2S(=O)(=O)c2cc(Cl)cc(Cl)c2)C(=O)O)c1`, the IC50 result is given as “Not Active”.
Still for that read-out and setting: the result for `CC(C)(C)Oc1cccc(C[C@H](NC(=O)[C@]2(C)CCCN2S(=O)(=O)c2cc(Cl)cc(Cl)c2)C(=O)O)c1` reads “Not Active”.

Another data set addresses T1, Integrin alpha-4/beta-7. The data set is described as follows: Alpha4-beta7 integrin binding affinity was determined in duplicate by a radioligand binding assay using [125I]-VCAM-Ig and a suspension of RPMI-8866 cells (a human B cell line alpha-4-beta-1-beta-7+). The class given is cell-based.
Details: not given
Compound `O=C(O)[C@H](Cc1ccc(OC(=O)N2CCCC2)cc1)NC(=O)[C@@H]1CCCN1S(=O)(=O)c1ccccc1` had a half-maximal inhibitory concentration (IC50) of 2.83 nM. In other words, the single-digit nanomolar range.
Still for that read-out and setting: the result for `O=C(O)[C@H](Cc1ccc(OCc2nnn[nH]2)cc1)NC(=O)[C@@H]1CCCN1S(=O)(=O)c1cc(Cl)cc(Cl)c1` reads 166 nM; that for `COCCOc1ccc(C[C@H](NC(=O)[C@@H]2CCCN2S(=O)(=O)c2cc(Cl)cc(Cl)c2)C(=O)O)cc1`, 62.5 nM; that for `O=C(Oc1ccc(C[C@H](NC(=O)[C@@H]2CCCN2S(=O)(=O)c2cc(Cl)cc(Cl)c2)C(=O)O)cc1)C1CCCC1`, 58.6 nM.
Same read-out and setting: the result for `O=C(Oc1ccc(C[C@H](NC(=O)[C@@H]2CCCN2S(=O)(=O)c2cc(Cl)cc(Cl)c2)C(=O)O)cc1)c1ccccc1` reads 43.2 nM.
Still for that read-out and setting: in the case of `O=C(Oc1ccc(C[C@H](NC(=O)[C@@H]2CCCN2S(=O)(=O)c2cc(Cl)cc(Cl)c2)C(=O)O)cc1)c1ccc[nH]1` it was 13 nM.

Tested on in the next data set: not listed separately
Nature of the data set: Tested for plasma half life period in rat (0-8 hr). It is filed as ADME, organism-based.
Details: not given
As for `O=C(O)[C@H](Cc1ccc(OC(=O)N2CCCC2)cc1)NC(=O)[C@@H]1CCCN1S(=O)(=O)c1ccccc1`, the half-life is 12 min.

A further data set concerns the target T1, Integrin alpha-4/beta-7. Nature of the data set: Inhibition of [125I]VCAM-Ig binding to Alpha4-beta7 integrin of RPMI-8866 cells. The class given is cell-based.
Details: not given
`COc1ccc(C[C@H](NC(=O)[C@@H]2CCCN2S(=O)(=O)c2cc(Cl)cc(Cl)c2)C(=O)O)cc1` came in with an IC50 of 362 nM.
Same read-out and setting: in the case of `O=C(O)[C@H](Cc1ccc(O)cc1)NC(=O)[C@@H]1CCCN1S(=O)(=O)c1cc(Cl)cc(Cl)c1` it was 820 nM; in that of `CCCCOc1ccc(C[C@H](NC(=O)[C@@H]2CCCN2S(=O)(=O)c2cc(Cl)cc(Cl)c2)C(=O)O)cc1`, 299 nM.
Still for that read-out and setting: the result for `CC(C)(C)Oc1ccc(C[C@H](NC(=O)[C@]2(C)CCCN2S(=O)(=O)c2cc(Cl)cc(Cl)c2)C(=O)O)cc1` reads 647 nM.

Another data set concerns Rattus norvegicus. The data set is described as follows: Plasma clearance value at intravenous dose of 1 mg/kg (2 mg/kg po (cassette dosing)) in Dawley rat. The following applies: in vivo. More on the design: dose 1 mg/kg. It is filed as ADME, organism-based.
With `O=C(O)[C@H](Cc1ccc(OC(=O)N2CCCC2)cc1)NC(=O)[C@@H]1CCCN1S(=O)(=O)c1ccccc1`, the Clp came to 176 mL/min/kg.

The values above are taken from ChEMBL document CHEMBL1135368, “The discovery of small molecule carbamates as potent dual alpha(4)beta(1)/alpha(4)beta(7) integrin antagonists” (Bioorg Med Chem Lett, 2002).
